Experimental data as given in US5580549A, “External preparation for skin” (priority 1992, dated 1996).

Tests used:
[1] = molecular target: mushroom tyrosinase; test: Examination for inhibition of tyrosinase activity (L-DOPA substrate, absorbance at 475 nm); assay type: biochemical; conditions: for IC50: L-DOPA substrate, pH 8.8 phosphate buffer, 1.5 minutes, room temperature, read-out: ID50 (inhibition of tyrosinase activity)
Experimental: (1) EXAMINATION FOR INHIBITION OF TYROSINASE ACTIVITY
10 mg L-DOPA (guaranteed reagent) is dissolved at the time of examination in 20 ml of phosphate buffer described in 3) below and prepared 0.05% L-DOPA solution.
3) 0.1-M phosphate buffer
The buffer was prepared at pH 8.8.
Preparation of sample solution
The sample described in TABLE 1 below are diluted by ethanol to the concentration with 3 standards.
The measurement of the tyrosinase activity was carried out by a modified method of Pomerantz, using L-DOPA (guaranteed reagent) as the substrate and measuring the absorbance at 475 nm at which the absorption of dihydroxyphenylalanine chrome (reaction product) exists.
Namely, 1.0 ml of the L-DOPA solution and 1.8 ml of the phosphate buffer were added in 0.1 ml of the sample solutions. 0.1 ml of tyrosinase solution was added and mixed for reaction for 1.5 minutes at room temperature. The absorbance at 475 nm was measured by using a spectrophotometer (type 220 A Spectrophotometer, HITACHI corporation) and the measured value was expressed by T.
Also, 1.0 ml of distilled water instead of the L-DOPA solution. 1.8 ml of the phosphate buffers and 0.1 ml of the sample solutions were mixed, operated in the same way above, measured the absorbance and obtained the value T' as a reagent blank of the sample.
0.1 ml of ethanol instead of the sample solutions was added to the mixture of 1.0 mo of the L-DOPA and 1.8 ml of phosphate buffers, operated in the same way above and obtained the value C as a control.
1.8 ml of phosphate buffers and 0.1 ml of ethanol were added to 1.0 ml of distilled water instead of L-DOPA solution, operated in the same way above and obtained the value C' as a reagent blank of the control.
Inhibition of tyrosinase activity in each sample concentration were obtained by the following formula. The result was described as semilog graph of which a logarithmic scale indicates concentration of the sample and another scale indicates inhibition ratio of the activity.
Incidentally, the values T, T', C, and C' were measured three times and averages were used for the calculation.
Inhibition of tyrosinase activity (%)=100×[1-(T-T')/(C-C')]

[2] = test system: human skin; test: Examination for bleaching effect (lotion applied to sunlight-exposed skin, depression effect to the chromatosis); assay type: in vivo; conditions: for bleaching effect: lotion with 1.0 wt % sample, each morning and evening, 8 weeks, 10 subjects per group; for improvement of bleaching effect by added ingredient (in words): added to preparation including 2-hydroxy alkoxybenzoic acid
Experimental: (2) E[…] BLEACHING EFFECT
Lotions were prepared by the following formula, using each sample. Namely, the alcohol phase and aqueous phase according to the following formula were prepared respectively, and both phases were mixed and dissolved according to an ordinal method. […]
______________________________________
Polyoxyethylene (25 moles) hydrogenated castor
Sodium hexametaphosphorate
Ion exchanged water balance
10 subjects for each group were exposed to sunlight in summer for 4 hours (2 hours×2 days). The lotion was applied to the facial skin of medialis brachii once each morning and evening […] after the day exposed to the sunlight for 8 weeks. After the application period, depression effect to the chromatosis which was caused by the ultraviolet irradiation was examined and evaluated, the degree of which was based on The following standard.
.circleincircle.: The number of the subjects who judged the result was "extremely effective" or "effective" were equal to or more than eight (Equal to or more than 80%).
.largecircle.: The number of the subjects who judged the result was "extremely effective" or "effective" were five to seven (from 50% less than 70%)
Δ: The number of the subjects who judged the result was "extremely effective" or "effective" were three to four (from 30% less than 40%)
×: The number of the subjects who judged the result was "extremely effective" or "effective" were less than two (less than 20%)
The inhibition effect to the tyrosinase activity which is essential for producing the melanine and bleaching effect for human skin by the 2-hydroxy alkoxybenzoic acid were examined by using samples described in TABLE 1.
The investigation for improvement of bleaching effect by adding other ingredients were carried out as described below.
Namely, the 2-hydroxy-3-methoxybenzoic acid as the 2-hydroxy alkoxy benzoic acid and sodium hyaluronate as the acid mucopolysaccharide were used for the examination of improvement of bleaching effect.
Lotions for the examination were prepared by adding 0.5 weight % of 2-hydroxy-3-methoxybenzoic acid into the alcohol phase and sodium hyaluronate into the aqueous phase of which the concentration as to be shown in TABLE 3.

[3] = Stability of the samples; conditions: TABLE 1 and TABLE 2; symbols not defined
[4] = test system: human skin; conditions: stated as known; cited from earlier work

IC50 [1] [mM]	stability [3]	Compound	bleaching effect [2]	further results
21	.smallcircle.	COc1cccc(C(=O)O)c1O [Example 1, 2-hydroxy-3-methoxybenzoic acid]	.circleincircle. (The number of the subjects who judged the result was "extremely effective" or "effective" were equal to or more than eight (Equal to or more than 80%))	–
4.5	.smallcircle.	COc1ccc(O)c(C(=O)O)c1 [Example 3, 2-hydroxy-5-methoxybenzoic acid]	.circleincircle. (The number of the subjects who judged the result was "extremely effective" or "effective" were equal to or more than eight (Equal to or more than 80%))	–
2	.smallcircle.	CCOc1ccc(C(=O)O)c(O)c1 [Example 4, 2-hydroxy-4-ethoxybenzoic acid]	.circleincircle. (The number of the subjects who judged the result was "extremely effective" or "effective" were equal to or more than eight (Equal to or more than 80%))	–
–	–	Cc1cccc(C(=O)O)c1O [Example 5, 2-hydroxy-3-methylbenzoic acid]	.circleincircle. (The number of the subjects who judged the result was "extremely effective" or "effective" were equal to or more than eight (Equal to or more than 80%))	–
–	.smallcircle.	Cc1ccc(C(=O)O)c(O)c1 [Example 6, 2-hydroxy-4-methylbenzoic acid]	.circleincircle. (The number of the subjects who judged the result was "extremely effective" or "effective" were equal to or more than eight (Equal to or more than 80%))	–
–	.smallcircle.	CCc1ccc(C(=O)O)c(O)c1 [Example 8, 2-hydroxy-4-ethylbenzoic acid]	.circleincircle. (The number of the subjects who judged the result was "extremely effective" or "effective" were equal to or more than eight (Equal to or more than 80%))	–
0.3	–	O=C1O[C@H]([C@@H](O)CO)C(O)=C1O [c, ascorbic acid, reference compound]	.smallcircle.	inhibition of tyrosinase activity (in words) [1]: high inhibition effect; bleaching effect (in words) ([2]; in vivo): rather low level
–	–	O=C(O)CN(CCN(CC(=O)O)CC(=O)O)CC(=O)O [disodium ethylenediamine tetraacetate]	–	improvement of bleaching effect by added ingredient (in words) [2]: excellent improvement effect of bleaching
–	–	CCOC(=O)c1ccc(O)cc1 [ethyl p-hydroxybenzoate]	–	improvement of bleaching effect by added ingredient (in words) [2]: excellent improvement effect of bleaching
–	–	COC(=O)c1ccc(O)cc1 [methyl p-hydroxybenzoate]	–	improvement of bleaching effect by added ingredient (in words) [2]: excellent improvement effect of bleaching
–	–	COc1ccc(C(=O)[O-])c(O)c1.[K+] [potassium 2-hydroxy-4-methoxybenzoate]	–	subjects who judged the effect was "extremely effective" or "effective" ([2]; bleaching effect examination, lotion): 80%
–	–	CC(=O)Oc1c(C)c(C)c2c(c1C)CCC(C)(CCC[C@H](C)CCC[C@H](C)CCCC(C)C)O2 (some centres unmarked) [tocopherol acetate]	–	improvement of bleaching effect by added ingredient (in words) [2]: excellent improvement effect of bleaching
–	–	sodium hyaluronate	–	improvement of bleaching effect by added ingredient (in words) [2]: extremely improved

Compound	IC50 [1] [mM]	stability [3]	bleaching effect [2]	further results
COc1ccc(C(=O)O)c(O)c1 [Example 2, 2-hydroxy-4-methoxybenzoic acid]	1	–	.circleincircle. (The number of the subjects who judged the result was "extremely effective" or "effective" were equal to or more than eight (Equal to or more than 80%))	–
Cc1ccc(O)c(C(=O)O)c1 [Example 7, 2-hydroxy-5-methylbenzoic acid]	–	.smallcircle.	.circleincircle. (The number of the subjects who judged the result was "extremely effective" or "effective" were equal to or more than eight (Equal to or more than 80%))	–
Oc1ccc(O)cc1 [a, hydroquinone, reference compound]	4.2	–	Δ (The number of the subjects who judged the result was "extremely effective" or "effective" were three to four (from 30% less than 40%))	side effect (known) [4]: have side effect
O=C(O)c1cc(O)ccc1O [b, gentisic acid, reference compound]	13.6	Δ	Δ (The number of the subjects who judged the result was "extremely effective" or "effective" were three to four (from 30% less than 40%))	side effect (known) [4]: have side effect
